Results as given in ChEMBL document CHEMBL5143608, “Peptide-based long-acting co-agonists of GLP-1 and cholecystokinin 1 receptors as novel anti-diabesity agents” (Eur J Med Chem, 2022).
Where a SMILES comes first, the peptide text is derived from it. [ ]: non-standard residue; d: D form. ξ: configuration not given here. ξpGlu = O=C1CCC(C(=O)O)N1

Assays:
[1] = biological target: T1, Gastrin/cholecystokinin type B receptor (Homo sapiens, UniProt P32239); assay: Agonist activity at human CCK2R expressed in HEK293 cells assessed as ERK1/2 phosphorylation incubated for 5 mins by AlphaScreen assay; type: functional, cell-based
T1 sequence (P32239 whole entry): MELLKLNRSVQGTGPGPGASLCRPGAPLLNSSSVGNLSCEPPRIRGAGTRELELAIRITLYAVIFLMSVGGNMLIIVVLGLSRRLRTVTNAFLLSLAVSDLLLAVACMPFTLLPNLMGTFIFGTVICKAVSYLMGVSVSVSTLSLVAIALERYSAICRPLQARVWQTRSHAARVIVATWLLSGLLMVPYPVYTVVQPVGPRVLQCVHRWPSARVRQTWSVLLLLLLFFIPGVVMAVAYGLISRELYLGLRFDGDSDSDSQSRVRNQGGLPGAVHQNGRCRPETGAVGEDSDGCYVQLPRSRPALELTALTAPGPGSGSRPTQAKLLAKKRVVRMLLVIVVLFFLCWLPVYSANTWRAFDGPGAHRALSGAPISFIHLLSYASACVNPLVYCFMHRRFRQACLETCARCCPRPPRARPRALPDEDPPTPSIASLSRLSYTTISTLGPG

[2] = biological target: T2, Cholecystokinin receptor type A (Homo sapiens, UniProt P32238); assay: Agonist activity at human CCK1R expressed in HEK293 cells assessed as ERK1/2 phosphorylation incubated for 5 mins by AlphaScreen assay; type: functional, cell-based
T2 sequence (P32238 whole entry): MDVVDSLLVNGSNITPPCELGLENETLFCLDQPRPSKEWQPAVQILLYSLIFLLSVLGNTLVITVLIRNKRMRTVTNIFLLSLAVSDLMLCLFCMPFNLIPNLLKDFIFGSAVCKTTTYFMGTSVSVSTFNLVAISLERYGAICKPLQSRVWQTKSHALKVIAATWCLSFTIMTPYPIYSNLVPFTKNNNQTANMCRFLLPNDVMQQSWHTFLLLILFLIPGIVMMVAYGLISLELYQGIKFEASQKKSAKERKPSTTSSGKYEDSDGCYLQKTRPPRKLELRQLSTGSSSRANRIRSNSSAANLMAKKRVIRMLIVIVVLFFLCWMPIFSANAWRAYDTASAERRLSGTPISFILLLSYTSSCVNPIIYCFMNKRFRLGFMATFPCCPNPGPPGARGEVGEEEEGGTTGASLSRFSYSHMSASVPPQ

[3] = Pancreatic insult activity in db/db mouse assessed as increase in amylase level in serum at 25 nmol/kg, sc administered every 2 days for 12 weeks; type: toxicity, organism-based; conditions: in vivo, 2016 h
[4] = Pancreatic insult activity in db/db mouse assessed as increase in lipase level in serum at 25 nmol/kg, sc administered every 2 days for 12 weeks; type: toxicity, organism-based; conditions: in vivo, 2016 h

| Molecule | EC50 [1] | EC50 [2] | Activity [3] | Activity [4] |
| --- | --- | --- | --- | --- |
| CC(C)C[C@H](NC(=O)[C@H](Cc1c[nH]c2ccccc12)NC(=O)CNC(=O)[C@H](Cc1ccc(O)cc1)NC(=O)[C@H](C)NC(=O)[C@H](CCC(=O)O)NC(=O)[C@H](CCC(=O)O)NC(=O)[C@H](CCC(=O)O)NC(=O)[C@H](CCC(=O)O)NC(=O)[C@H](CCC(=O)O)NC(=O)[C@H](CC(C)C)NC(=O)[C@H](Cc1c[nH]c2ccccc12)NC(=O)[C@@H]1CCCN1C(=O)CNC(=O)C1CCC(=O)N1)C(=O)N[C@@H](CC(=O)O)C(=O)N[C@@H](Cc1ccccc1)C(N)=O (some centres undefined) ([ξpGlu]GPWLEEEEEAYGWLDF-NH2) | 2.4 nM | > 100 nM | – | – |
| SEMAGLUTIDE | – | – | Toxic | Toxic |
